Experimental data reported in PMC2816717, “Active Fragments from Pro- and Antiapoptotic BCL-2 Proteins Have Distinct Membrane Behavior Reflecting Their Functional Divergence” (PLoS ONE, 2010).

Assay: Surface pressure change after peptide injection without lipid monolayer
Type: physicochemical
Settings: peptide 0.2 µM injected into pure subphase, Hepes buffer pH 7.4, 22.5°C; defined as threshold for significant variation
Method: A number of control experiments were carried out in order to characterize the peptide-lipid monolayer interactions at the air-buffer interface. First, we determined surface pressure-time isotherms of Bax-α5S, a strongly amphipathic and hydrophobic peptide (Table 1), in presence or absence of lipids (POPC/DOPE/CL, see Figure 2). When the peptide was injected into a pure subphase without any lipid monolayer, the corresponding surface pressure change was Δπ = 4.8 mN/m (this value was subsequently defined as a threshold level for significant surface pressure variation). When the same injection was repeated but this time using a lipid monolayer over the aqueous subphase, at an initial surface pressure of 5 mN/m, the surface pressure rose up to Δπ = 32.1 mN/m (Figure 2). […] Then, we measured compression–decompression–recompression isotherms in presence of the peptide. […] After stabilization, the peptide was injected underneath the monolayer, πmax was recorded (32.1 mN/m) and the monolayer was decompressed.
Figure 2 Surface pressure-time isotherms for BAX-α5S with (bold line) or without (light line) POPC/DOPE/CL lipids. […] The initial velocity of surface pressure increase (Vi) was calculated as the slope of the curve (Δπ/Δt) at the time of peptide addition. […]

With “WGRVVALFYFASKLVLKALSTK [BAX-α5S, short peptide of the first helix (α5) of the central hairpin of BAX]” the “surface pressure change (Δπ) without lipid monolayer” value was 4.8 mN/m.
